{
  "source": "patent US9428733B2",
  "about": "“Method for obtaining pancreatic endocrine cells from adipose tissue-origin cells” (AKIFUMI MATSUYAMA, priority 2005, dated 2016)",
  "test_system": "pancreatic islets obtained from adipose tissue-derived cells",
  "assay": "Insulin secretion from pancreatic islets obtained from adipose tissue-derived cells, ELISA of culture supernatant",
  "assay_type": "cell-based, Human",
  "conditions": "2 hours; for secretion of insulin: RPMI 1640 containing 3.3 mM or 16.7 mM glucose, FIG. 17",
  "method": "The insulin level and the C-peptide level in the culture supernatant were measured using ELISA kit (Mercodia).",
  "data": [
    {"smiles": "Cn1c(=O)c2[nH]cnc2n(C)c1=O", "note": "[theophylline]", "values": [
      {"measurement": "secretion of insulin", "setting": "100 μM", "result": "promoted"},
      {"measurement": "amount (insulin, C-peptide) secreted by islets in medium containing theophylline versus medium without", "setting": "10 mM theophylline control, 3.3 mM or 16.7 mM glucose, FIGS. 14-16", "result": "similar"}
    ]},
    {"smiles": "CC(C)Cn1c(=O)n(C)c(=O)c2[nH]cnc21", "note": "[IBMX]", "values": [
      {"measurement": "secretion of insulin", "setting": "100 μM", "result": "promoted"}
    ]},
    {"smiles": "CCCCNC(=O)NS(=O)(=O)c1ccc(C)cc1", "note": "[tolbutamide]", "values": [
      {"measurement": "secretion of insulin", "setting": "10 μM", "result": "promoted"}
    ]},
    {"smiles": "C[N+](C)(C)CCOC(N)=O", "note": "[carbachol]", "values": [
      {"measurement": "secretion of insulin", "setting": "100 μM", "result": "promoted"}
    ]}
  ]
}
